The values below come from publication PMC9457533, “Study on Metronidazole Acid-Base Behavior and Speciation with Ca^2+ for Potential Applications in Natural Waters” (Molecules, 2022).

The nature of data set [1]: Potentiometric titrations: formation constant of Ca^2+-MNZ species (CaLH) in NaCl. The class given is physicochemical. Particulars: for logK^CaLH: Ca + LH = CaLH. As to the method: To investigate the interaction between MNZ and Ca^2+, various potentiometric titrations were also performed on solutions containing different metal/ligand ratios. The reactions related to formation constants are indicated below, where the charges are omitted for simplicity and MNZ was indicated as L:Ca + L + rH = MLHr β^MLH^r(3) Ca + LHr = MLHr K^MLH^r(4)
Hydrolysis constant values of Ca^2+ species at various temperatures and ionic strength in NaCl, taken into account in the calculations relating to the M-L system, are reported in Supplementary Material. The most accurate speciation model is chosen by evaluating several factors, which are the statistical parameters standard and mean deviation, the formation percentages of the considered species, and the simplicity of the model. Based on potentiometric results, several computational tests were carried out considering different speciation models.
The potentiometric titrations were employed by Metrohm-Titrando 809 automated potentiometer with a combined glass electrode ORION, type Ross 8102SC and a Metrohm Dosino 800 automatic dispenser. The titrations were performed in cells with a capacity of 25 mL, characterized by a double wall inside which thermostated water circulates. The cells were connected to a thermostat model D1-G Haake. During the measurements, pure N2 was bubbled to avoid CO2 and O2 in solution. The system is interfaced to a PC through the Metrohm TIAMO 2.0 software, which automatically acquires the mL/mV pairs. It can control several parameters, such as e.m.f. stability, titrant delivery, and data acquisition. Estimated accuracy of this apparatus is ±0.15 mV and ±0.002 mL for e.m.f. and for readings of titrant volume. The acid-base titrations were carried out first on 25 mL solutions containing L, HCl, and NaCl as supporting electrolytes at different temperatures and ionic strength conditions. […] The solutions were titrated using standard NaOH solution. A calibration was associated with each measurement by titration with NaOH of a solution containing HCl, NaCl, and H2O, in order to calculate the standard electrode potential (E^0) and the pKw values.
The protonation constant of MNZ (L), formation constant values of Ca^2+(M)-MNZ (L), and titration parameters (analytical concentration of the reagents, standard potential E^0, junction potential) were determined by using BSTAC and STACO programs. LIANA program has provided the parameters characterizing the dependence of the protonation and formation constant values on the temperature and ionic strength. More details on software are present in ref. [59]. ^1H NMR data were processed by HypNMR software, which allows for calculating protonation and formation constant values and the individual chemical shift of species through the observed signals and assuming fast mutual exchange in the NMR time scale. UV-Vis data are processed by the HypSpec program, which allows refining of the protonation and formation constant as well as the molar absorption coefficient values (ε) of the species. The speciation diagrams and the formation percentage of the species are determined by the Hyss program.

Details of data set [2]: method as in PMID 33975173. The settings on record: t = 25 °C, I = 0.1 mol L^-1 in NaClO4, spectrophotometry; cited from earlier work.

“And” between values parts separate entries of the source, which are not always exact repeats. Equal entries are not always repeated.

As to `Cc1ncc([N+](=O)[O-])n1CCO` [MNZ, 2-Methyl-5-nitroimidazole-1-ethanol], the “logβ^CaLH” value in data set [1] (Ca + L + H = CaLH, t = 15 °C, I = 0.16 mol L^-1 NaCl) was 14.06(11) ^4, 5; in data set [1] (Ca + L + H = CaLH, t = 25 °C, I = 0.5 mol L^-1 NaCl), 15.00(2); in data set [1] (Ca + L + H = CaLH, t = 25 °C, I = 0.98 mol L^-1 NaCl), 14.60(5) ^6; in data set [1] (Ca + L + H = CaLH, t = 37 °C, I = 0.15 mol L^-1 NaCl), 13.56(8) ^7. For the same compound, the logβ average value in data set [1] (Ca + L + H = CaLH, t = 25 °C, I = 0.15 mol L^-1, average of UV, potentiometry) is 14.16(7). For the same compound, the “logK^CaLH” value is 2.06 ^5 in data set [1] (t = 15 °C, I = 0.16 mol L^-1 NaCl); 2.49 ^5 in data set [1] (t = 25 °C, I = 0.16 mol L^-1 NaCl (text: 0.15)); 2.49 in data set [1] (t = 25 °C, I = 0.5 mol L^-1 NaCl); 2.38 ^6 in data set [1] (t = 25 °C, I = 0.98 mol L^-1 NaCl); 1.68 and 1.68 ^7 in data set [1] (t = 37 °C, I = 0.15 mol L^-1 NaCl). In data set [2], the “logK2 (protonation constant)” value is 2.15.
